Measurements taken from patent publication US9096639B2, “17-hydroxy-17-pentafluorethyl-estra-4,9(10)-dien-11-acyloxyalkylene phenyl derivatives, methods for the production thereof and use thereof for treating diseases” (Bayer Intellectual Property GmbH, priority 2009, dated 2015).
Like-named read-outs stand apart in the source and are kept apart here.

Tests used:
[1] = Determination of stability in human plasma; assay type: in vitro ADME
Protocol: A stock solution of 1.0 mg of the substance to be tested in a 9:1 mixture of acetonitrile and dimethyl sulphoxide was prepared. 20 μl of this stock solution were added at 37° C. to 1 ml of human plasma or rat plasma. To determine the content, 100 μl samples were each taken at different times. The enzyme activity was blocked by adding 300 μl of acetonitrile, the samples were centrifuged at 5000 rpm over 10 minutes and, in the supernatant, the content of ester and hydrolysis products (8S,11R,13S,14S,17S)-17-hydroxy-11-[4-((R)-1-hydroxyethyl)phenyl]-1 3-methyl-17-pentafluoroethyl-1,2,6,7,8,11,12,13,14,15,16,17-dodecahydrocyclopenta[a]phenanthren-3-one and/or (8S,11R,13S,14S,17S)-17-hydroxy-11-[4-((S)-1-hydroxyethyl)phenyl]-13-methyl-17-pentafluoroethyl-1,2,6,7,8,11,12,13,14,15,16,17-dodecahydrocyclopenta[a]phenanthrene-3-one was determined by HPLC. The concentration-time curves were used to calculate the degradation kinetics. The stability of the substance tested was reported as the half-life.

[2] = molecular target: T1, human progesterone receptor A (Homo sapiens, UniProt P06401); assay: Progesterone receptor transactivation test in stably transfected SK-N-MC cells (PR-A, MMTV-LUC reporter); assay type: cell-based; conditions: 0.1 nmol/l promegestone, 24 hours, read-out: PR-A IC50 (antagonistic potency)
T1 construct: expressed in transfected cells; host or cells: SK-N-MC human neuroblastoma cells, stably transfected with pRChPR-A-neo and pMMTV-LUC
T1 sequence (P06401 1-769 isoform P06401-2): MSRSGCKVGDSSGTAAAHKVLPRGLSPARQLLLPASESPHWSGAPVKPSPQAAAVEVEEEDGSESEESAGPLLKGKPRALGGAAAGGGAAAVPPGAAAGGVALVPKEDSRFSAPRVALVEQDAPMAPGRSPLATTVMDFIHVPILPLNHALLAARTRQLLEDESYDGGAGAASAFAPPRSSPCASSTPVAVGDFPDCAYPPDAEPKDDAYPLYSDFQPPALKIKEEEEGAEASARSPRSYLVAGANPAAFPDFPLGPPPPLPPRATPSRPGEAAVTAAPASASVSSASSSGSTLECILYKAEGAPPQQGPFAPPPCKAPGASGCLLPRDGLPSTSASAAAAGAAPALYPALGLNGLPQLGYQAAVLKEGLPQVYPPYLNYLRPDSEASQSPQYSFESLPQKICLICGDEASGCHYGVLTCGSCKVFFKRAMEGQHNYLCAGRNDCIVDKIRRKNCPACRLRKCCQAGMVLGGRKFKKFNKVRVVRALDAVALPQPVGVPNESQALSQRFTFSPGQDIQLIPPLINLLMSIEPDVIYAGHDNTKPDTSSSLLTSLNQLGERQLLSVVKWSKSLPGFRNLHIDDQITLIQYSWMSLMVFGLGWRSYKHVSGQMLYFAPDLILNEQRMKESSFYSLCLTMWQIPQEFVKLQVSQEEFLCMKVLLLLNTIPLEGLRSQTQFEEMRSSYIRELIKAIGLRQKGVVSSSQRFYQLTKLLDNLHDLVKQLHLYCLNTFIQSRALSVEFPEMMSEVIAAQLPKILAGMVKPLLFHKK
Protocol: Progesterone receptor-antagonistic action in stable transfectants of human neuroblastoma cells (SK-N-MC cells) with the human progesterone A or progesterone B receptor and an MN-LUC reporter construct SK-N-MC cells (human neuroblastoma cells) which have been stably transfected with plasmids expressing the human progesterone receptor B (pRChPR-B-neo) or the human progesterone receptor A (pRChPR-A-neo) and a reporter construct (pMMTV-LUC) were incubated for 24 hours either in the absence (negative control) or in the presence of ascending amounts of the particular test compound (0.01 nmol/l, 0.1 nmol/l, 1 […], 100 nmol/l and […]), in order to determine the agonistic efficacy. As a positive control of the reporter gene induction, the cells were treated with the synthetic gestagen promegestone (0.01 nmol/l, 0.1 nmol/l, 1 nmol/l, 10 nmol/l, 100 nmol/l and […]). To determine the antagonistic activity, the cells were treated with 0.1 nmol/l promegestone and additionally with ascending amounts of the particular test compound (0.01 nmol/l, 0.1 nmol/l, 1 nmol/l, 10 nmol/l, 100 nmol/l and […]). The activity of the reporter gene LUC (LUC=luciferase) was determined in the cell lysates and measured as RLU (relative light units). All measurements are reported as % efficacy and as EC50 and IC50 concentrations.

[3] = 37° C., read-out: Stability t1/2 in human plasma (converted)
[4] = method of working example 19, summary statement in description, read-out: half-life in human plasma

SMILES | half-life [1, 3] [days] | half-life [1, 4] [days] | IC50 [2] [nM]
CC(=O)O[C@H](C)c1ccc([C@H]2C[C@@]3(C)C(CC[C@@]3(O)C(F)(F)C(F)(F)F)C3CCC4=CC(=O)CCC4=C32)cc1 (mixture of isomers) [Example 1, acetic acid (RS)-1-[4-((8S,11R,13S,14S,17S)-17-hydroxy-13-methyl-3-oxo-17-pentafluoroethyl-2,3,6,7,8,11,12,13,14,15,16,17-dodecahydro-1H-cyclopenta[a]phenanthren-11-yl)phenyl]ethyl ester] | 25.4 | > 4.17 | 0.07
CC(C)CC(=O)OC(C)c1ccc([C@H]2C[C@@]3(C)C(CC[C@@]3(O)C(F)(F)C(F)(F)F)C3CCC4=CC(=O)CCC4=C32)cc1 (mixture of isomers) [Example 3, 3-Methylbutyric acid (RS)-1-[4-((8S,11R,13S,14S,17S)-17-hydroxy-13-methyl-3-oxo-17-pentafluoroethyl-2,3,6,7,8,11,12,13,14,15,16,17-dodecahydro-1H-cyclopenta[a]phenanthren-11-yl)phenyl]ethyl ester] | > 41.7 | > 4.17 | 0.21
CC(OC(=O)CC(C)(C)C)c1ccc([C@H]2C[C@@]3(C)C(CC[C@@]3(O)C(F)(F)C(F)(F)F)C3CCC4=CC(=O)CCC4=C32)cc1 (mixture of isomers) [Example 4, 3,3-Dimethylbutyric acid (RS)-1-[4-((8S,11R,13S,14S,17S)-17-hydroxy-13-methyl-3-oxo-17-pentafluoroethyl-2,3,6,7,8,11,12,13,14,15,16,17-dodecahydro-1H-cyclopenta[a]phenanthren-11-yl)phenyl]ethyl ester] | > 41.7 | > 4.17 | 0.2
CC(OC(=O)[C@@H](C)NC(=O)OC(C)(C)C)c1ccc([C@H]2C[C@@]3(C)[C@@H](CC[C@@]3(O)C(F)(F)C(F)(F)F)[C@@H]3CCC4=CC(=O)CCC4=C32)cc1 (mixture of isomers) [Example 6, (R)-2-tert-Butoxycarbonylaminopropionic acid (RS)-1-[4-((8S,11R,13S,-14S,17S)-17-hydroxy-13-methyl-3-oxo-17-pentafluoroethyl-2,3,6,7,8,11,12,13,14,15,16,17-dodecahydro-1H-cyclopenta[a]phenanthren-11-yl)phenyl]ethyl ester] | 20.5 | > 4.17 | 0.1
CC(C)C(=O)OC(C)c1ccc([C@H]2C[C@@]3(C)C(CC[C@@]3(O)C(F)(F)C(F)(F)F)C3CCC4=CC(=O)CCC4=C32)cc1 (mixture of isomers) [Example 2, Isobutyric acid (RS)-1-[4-((8S,11R,13S,14S,17S)-17-hydroxy-13-methyl-3-oxo-17-pentafluoroethyl-2,3,6,7,8,11,12,13,14,15,16,17-dodecahydro-1H-cyclopenta[a]-phenanthren-11-yl)phenyl]ethyl ester] | 33.5 | > 4.17 | 0.1
CC(OC(=O)[C@@H](NC(=O)OC(C)(C)C)C(C)C)c1ccc([C@H]2C[C@@]3(C)C(CC[C@@]3(O)C(F)(F)C(F)(F)F)C3CCC4=CC(=O)CCC4=C32)cc1 (mixture of isomers) [Example 5, (S)-2-tert-Butoxycarbonylamino-3-methylbutyric acid (RS)-1-[4-((8S,11R,-13S,14S,17S)-17-hydroxy-13-methyl-3-oxo-17-pentafluoroethyl-2,3,6,7,8,11,12,13,14,15,-16,17-dodecahydro-1H-cyclopenta[a]phenanthren-11-yl)phenyl]ethyl ester] | > 41.7 | > 4.17 | 0.3
CC(OC(=O)[C@H](C)NC(=O)OC(C)(C)C)c1ccc([C@H]2C[C@@]3(C)C(CC[C@@]3(O)C(F)(F)C(F)(F)F)C3CCC4=CC(=O)CCC4=C32)cc1 (mixture of isomers) [Example 7, (S)-2-tert-Butoxycarbonylaminopropionic acid (RS)-1-[4-((8S,11R,13S,-14S,17S)-17-hydroxy-13-methyl-3-oxo-17-pentafluoroethyl-2,3,6,7,8,11,12,13,14,15,16,17-dodecahydro-1H-cyclopenta[a]phenanthren-11-yl)phenyl]ethyl ester] | > 41.7 | > 4.17 | 0.14
